Laboratory results published in PubChem BioAssay (NCI).
Values joined by “and” are separate entries in the source; they are usually repeats but may differ in a detail not shown here. Equal values may be shown once.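 Step 1: Grow cells in 96-well plates. Step 2: Expose to compound for 48 hours at 5 concentrations. Step 3: Interpolate endpoints linearly; if unreached, use highest concentration. Abbreviation: GI50, concentration required for 50% inhibition of growth. TGI: total growth inhibition.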

How the values were obtained:
Experiment in all cases: inhibition of tumour cell growth, NCI panel, 48 h
HOP-18 NSCLC = test system: HOP-18 NSCLC
KM20L2 colon = test system: KM20L2 colon
M19-MEL melanoma = test system: M19-MEL melanoma
SK-MEL-2 melanoma = test system: SK-MEL-2 melanoma
SNB-78 CNS = test system: SNB-78 CNS
TK-10 renal = test system: TK-10 renal
DU-145 prostate = test system: DU-145 prostate
MCF7 breast = test system: MCF7 breast
NCI/ADR-RES ovarian = test system: NCI/ADR-RES ovarian
T-47D breast = test system: T-47D breast

Structure (SMILES)	TGI (HOP-18 NSCLC) [µM]	TGI (KM20L2 colon)	TGI (M19-MEL melanoma) [µM]	TGI (SK-MEL-2 melanoma) [µM]	TGI (SNB-78 CNS) [µM]	TGI (TK-10 renal) [µM]	other results
COc1nc2nccc-2c2occn12	> 100	> 100 µM	> 100	> 100	> 100	> 100	
CC(=O)c1cc([N+](=O)[O-])ccc1OCC(=O)O		> 100 µM	> 100	> 100	> 100	> 100	
CN=S(=O)(c1ccccc1)c1ccccc1	> 100	> 100 µM	> 100	> 100	> 100	> 100	
Cc1cccc(C(C)C)c1NC(=O)C(=O)CC(=O)c1c(C)n([O-])c2ccccc2[n+]1=O	> 100	> 100 µM	50.6	98.1	> 100	> 100	
CC(C)C1CC(O)O[C@@H]([C@@H](C)[C@H]2CC(=O)[C@@H]3[C@@H]4[C@@H](O)[C@H](O)[C@H]5[C@@H](O)[C@H](O)CC[C@]5(C)[C@H]4CC[C@]23C)C1 (some centres not stated)		> 100 µM	> 100	> 100	> 100	> 100	
N#CC(C(=O)C(=O)NCCCNC(=O)C(=O)C(C#N)c1ccccc1)c1ccccc1 (configuration not stated)	> 100	> 100 µM	> 100	> 100	> 100	> 100	
O=c1cc(-c2ccccc2)c2cc3c(=O)ccoc3cc2o1		> 100 µM	> 100	> 100		> 100	
CSc1nc2c(nc(N)n2C2OCC(O)C(O)C2O)c(=O)n1C (configuration not stated)	> 100	> 100 µM	> 100		> 100	> 100	
COc1cc(CNc2ccc(C(C)C)cc2)cc(OC)c1OC	74.1	38.8 µM	39	32.9	> 100	> 100	
CC1=C(O)C(=O)C2C(=O)C1C(C)C2c1ccc(Cl)cc1 (configuration not stated)			> 100	> 100	> 100	> 100	
N#C/C(=C\c1cccc(O)c1)C(N)=O		> 100 µM	> 100	> 100	> 100	> 100	
CC1S(=O)(=O)OCCOS1(=O)=O	> 100	> 100 µM	> 100	> 100	> 100	> 100	
COc1cccc(C(=O)C2C(=O)N(C)CCc3ccccc32)c1OC (configuration not stated)	> 100	> 100 µM	> 100	> 100		> 100	
CC/C=C\C/C=C\C/C=C\CCCCCCCC(=O)OCC	> 100	> 100 µM	> 100	> 100		> 100	
Cc1ccc(NC(=O)/C(=N\Nc2ccc([N+](=O)[O-])cc2[N+](=O)[O-])C2C(=O)NC(=O)NC2=O)cc1	> 100	> 100 µM	> 100		> 100	> 100	
CCOC(=O)NN1C(=O)C(=P(c2ccccc2)(c2ccccc2)c2ccccc2)C(C(=O)OCC)=C1C		> 100 µM	> 100	> 100	> 100	> 100	
CCOc1ccc(NCc2cc(OC)c(OC)c(OC)c2)cc1	> 100	1.79 µM and 3.09 µM		> 100	> 100	> 100	TGI (DU-145 prostate): > 100 µM; GI50 (HOP-18 NSCLC): 2.46 µM and 10.2 µM; TGI (MCF7 breast): > 100 µM; GI50 (NCI/ADR-RES ovarian): 0.569 µM; TGI (NCI/ADR-RES ovarian): > 100 µM; GI50 (SK-MEL-2 melanoma): 2.22 µM and 0.429 µM; GI50 (T-47D breast): 1.66 µM and 4.48 µM; TGI (T-47D breast): > 100 µM; GI50 (TK-10 renal): > 100 µM
Cc1cc2c3ccccc3n(C)c2c2c1C(=O)C=CC2=O			33.4	37.7	49.1	31.2	TGI (DU-145 prostate): 44.5 µM; TGI (MCF7 breast): 17.5 µM; TGI (NCI/ADR-RES ovarian): > 100 µM; TGI (T-47D breast): 19.4 µM
O=C(CSC(=S)N1CCOCC1)Nc1nc2c(s1)CCCC2		> 100 µM	> 100	> 100	> 100	> 100	
NNC(=O)CCC(=O)NC1C2CC3CC(C2)CC1C3 (configuration not stated)		> 100 µM	> 100	> 100	> 100	> 100	
COc1ccc(O)c(C#N)c1C#N		> 100 µM	> 100	> 100	> 100	> 100	
CC[C@H](CC#N)OC(=O)N[C@@H](C)c1cccc(NC(=O)Nc2ccc(-c3cnco3)c(OC)c2)c1				34.8		28.3	GI50 (DU-145 prostate): 0.0672 µM; TGI (DU-145 prostate): 39.3 µM; GI50 (MCF7 breast): 0.0458 µM; TGI (MCF7 breast): 18.2 µM; GI50 (NCI/ADR-RES ovarian): 4.87 µM; TGI (NCI/ADR-RES ovarian): 62.2 µM; GI50 (SK-MEL-2 melanoma): 4.05 µM; GI50 (T-47D breast): 0.165 µM; TGI (T-47D breast): 21.4 µM; GI50 (TK-10 renal): 0.171 µM
CC(=O)n1c2ccccc2c2nc3nc(Oc4ccc(C)cc4)c4ccccc4c3cc21		> 100 µM	> 100	> 100	> 100		
CN(C)CCCN1CCc2c([nH]c3ccccc23)C1c1cccnc1 (configuration not stated)		> 100 µM	> 100	> 100	> 100	> 100	
